{"source": "patent US20110071096A1", "about": "“Macrolides Having Antibiotic Activity” (IDEXX Laboratories, Inc., priority 2009, published 2011)", "key": {"Staphylococcus aureus": {"test_system": "Staphylococcus aureus", "assay": "Minimum inhibitory concentration, gram positive bacteria", "format": "cell-based"}, "Bacillus subtilis": {"test_system": "Bacillus subtilis", "assay": "Minimum inhibitory concentration, gram positive bacteria", "format": "cell-based"}, "Escheria Coli": {"test_system": "Escheria Coli", "assay": "Minimum inhibitory concentration, gram negative bacteria", "format": "cell-based"}, "[1]": {"test_system": "Bordetella bronchispetica", "assay": "Minimum inhibitory concentration, gram negative bacteria", "format": "cell-based"}, "Streptococcus pyogenes [2]": {"test_system": "Streptococcus pyogenes", "conditions": "gram positive; from J. Med. Chem., 44, 4137-4156 (2001); cited from earlier work"}, "Streptococcus pneumonia [3]": {"test_system": "Streptococcus pneumonia", "conditions": "gram positive; from J. Med. Chem., 44, 4137-4156 (2001); cited from earlier work"}, "Clostridium perfringens [4]": {"test_system": "Clostridium perfringens", "conditions": "gram positive; from J. F. Presscott, Antimicrobial Therapy in Veterinary Medicine, 3rd ed.; cited from earlier work"}, "Enterococcus faecalis [5]": {"test_system": "Enterococcus faecalis", "conditions": "gram positive; from J. Clin. Micro., 26: 11, 2415-2420 (1988); cited from earlier work"}, "Pasteurella multocida [6]": {"test_system": "Pasteurella multocida", "conditions": "gram negative; from J. F. Presscott, Antimicrobial Therapy in Veterinary Medicine, 3rd ed.; cited from earlier work"}, "Bacteroides fragilis [7]": {"test_system": "Bacteroides fragilis", "conditions": "gram negative; from J. F. Presscott, Antimicrobial Therapy in Veterinary Medicine, 3rd ed.; cited from earlier work"}, "Streptococcus pyogenes [8]": {"test_system": "Streptococcus pyogenes", "assay": "Minimum inhibitory concentration, gram positive bacteria", "format": "cell-based"}, "Streptococcus pneumonia [9]": {"test_system": "Streptococcus pneumonia", "assay": "Minimum inhibitory concentration, gram positive bacteria", "format": "cell-based", "conditions": "Streptococcus pneumoniae"}, "Clostridium perfringens [10]": {"test_system": "Clostridium perfringens", "assay": "microbe, parasite or virus in culture", "format": "cell-based", "conditions": "read-out: Minimum Inhibitory Concentration Clostridium perfringens"}, "Enterococcus faecalis [11]": {"test_system": "Enterococcus faecalis", "assay": "Minimum inhibitory concentration, gram positive bacteria", "format": "cell-based"}, "Pasteurella multocida [12]": {"test_system": "Pasteurella multocida", "assay": "Minimum inhibitory concentration, gram negative bacteria", "format": "cell-based"}, "Klebsiella Pneumonia": {"test_system": "Klebsiella Pneumonia", "assay": "Minimum inhibitory concentration, gram negative bacteria", "format": "cell-based", "conditions": "Klebsiella pneumoniae"}, "Bacteroides fragilis [13]": {"test_system": "Bacteroides fragilis", "assay": "Minimum inhibitory concentration, gram negative bacteria", "format": "cell-based"}}, "note": "Marks after values point to notes of the source that are not given here."}
{"smiles": "CC[C@H]1OC(=O)[C@H](C)[C@@H](O[C@H]2C[C@@](C)(OC)[C@@H](O)[C@H](C)O2)[C@H](C)[C@@H](O[C@@H]2O[C@H](C)C[C@H](N(C)C)[C@H]2O)[C@](C)(OC)C[C@@H](C)C(=O)[C@H](C)[C@@H](O)[C@]1(C)O", "note": "[Clarithromycin]", "values": [{"measurement": "MIC", "setting": "Staphylococcus aureus", "result": "< 0.25", "unit": "µg/mL"}, {"measurement": "MIC", "setting": "Bacillus subtilis", "result": "< 0.25", "unit": "µg/mL"}, {"measurement": "MIC", "setting": "Escheria Coli", "result": 32, "unit": "µg/mL"}, {"measurement": "MIC", "setting": "[1]", "result": 4, "unit": "µg/mL"}, {"measurement": "Minimum Inhibitory Concentration Streptococcus pyogenes", "setting": "Streptococcus pyogenes [2]", "result": "0.06^(1) μg/mL"}, {"measurement": "Minimum Inhibitory Concentration Streptococcus pneumonia", "setting": "Streptococcus pneumonia [3]", "result": "0.03^(1) μg/mL"}, {"measurement": "Minimum Inhibitory Concentration Clostridium perfringens", "setting": "Clostridium perfringens [4]", "result": "4* μg/mL"}, {"measurement": "Minimum Inhibitory Concentration Enterococcus faecalis", "setting": "Enterococcus faecalis [5]", "result": "2.7^(3) μg/mL"}, {"measurement": "Minimum Inhibitory Concentration Pasteurella multocida", "setting": "Pasteurella multocida [6]", "result": "2* μg/mL"}, {"measurement": "Minimum Inhibitory Concentration Bacteroides fragilis", "setting": "Bacteroides fragilis [7]", "result": "16* μg/mL"}]}
{"smiles": "CC[C@H]1OC(=O)[C@H](C)[C@@H](O[C@H]2C[C@@](C)(OC)[C@@H](O)[C@H](C)O2)[C@H](C)[C@@H](O[C@@H]2O[C@H](C)C[C@H](N(C)C)[C@H]2O)[C@](C)(O)C[C@@H](C)C(=O)[C@H](C)[C@@H](O)[C@]1(C)O", "note": "[Erythromycin]", "values": [{"measurement": "MIC", "setting": "Staphylococcus aureus", "result": 0.25, "unit": "µg/mL"}, {"measurement": "MIC", "setting": "Bacillus subtilis", "result": 0.25, "unit": "µg/mL"}, {"measurement": "MIC", "setting": "Escheria Coli", "result": 32, "unit": "µg/mL"}, {"measurement": "MIC", "setting": "[1]", "result": 4, "unit": "µg/mL"}, {"measurement": "Minimum Inhibitory Concentration Streptococcus pyogenes", "setting": "Streptococcus pyogenes [2]", "result": "0.06^(1) μg/mL"}, {"measurement": "Minimum Inhibitory Concentration Streptococcus pneumonia", "setting": "Streptococcus pneumonia [3]", "result": "0.06^(1) μg/mL"}, {"measurement": "Minimum Inhibitory Concentration Clostridium perfringens", "setting": "Clostridium perfringens [4]", "result": "4* μg/mL"}, {"measurement": "Minimum Inhibitory Concentration Enterococcus faecalis", "setting": "Enterococcus faecalis [5]", "result": "2.7^(3) μg/mL"}, {"measurement": "Minimum Inhibitory Concentration Pasteurella multocida", "setting": "Pasteurella multocida [6]", "result": "4* μg/mL"}, {"measurement": "Minimum Inhibitory Concentration Bacteroides fragilis", "setting": "Bacteroides fragilis [7]", "result": ">8* μg/mL"}]}
{"smiles": "CC[C@H]1OC(=O)[C@H](C)[C@@H](OC2CC(C)(OC)C(OCCCN(C)C)C(C)O2)[C@H](C)[C@@H](OC2OC(C)CC(N(C)C)C2O)[C@](C)(OC)C[C@@H](C)C(=O)[C@H](C)[C@@H](O)[C@]1(C)O", "note": "(stereo partly drawn) [Formula 2, 4″-DMAP-Clarithromycin ether]", "values": [{"measurement": "MIC", "setting": "Staphylococcus aureus", "result": 0.25, "unit": "µg/mL"}, {"measurement": "MIC", "setting": "Bacillus subtilis", "result": 0.25, "unit": "µg/mL"}, {"measurement": "MIC", "setting": "Streptococcus pyogenes [8]", "result": 0.25, "unit": "µg/mL"}, {"measurement": "MIC", "setting": "Streptococcus pneumonia [9]", "result": 0.25, "unit": "µg/mL"}, {"measurement": "MIC", "setting": "Clostridium perfringens [10]", "result": 2, "unit": "µg/mL"}, {"measurement": "MIC", "setting": "Enterococcus faecalis [11]", "result": 8, "unit": "µg/mL"}, {"measurement": "MIC", "setting": "Escheria Coli", "result": 32, "unit": "µg/mL"}, {"measurement": "MIC", "setting": "Pasteurella multocida [12]", "result": 1, "unit": "µg/mL"}, {"measurement": "MIC", "setting": "Klebsiella Pneumonia", "result": 32, "unit": "µg/mL"}, {"measurement": "MIC", "setting": "[1]", "result": 4, "unit": "µg/mL"}, {"measurement": "MIC", "setting": "Bacteroides fragilis [13]", "result": 2, "unit": "µg/mL"}]}
{"smiles": "CC[C@H]1OC(=O)[C@H](C)[C@@H](O[C@H]2C[C@@](C)(OC)[C@@H](O)[C@H](C)O2)[C@H](C)[C@@H](O[C@@H]2O[C@H](C)C[C@H](N(C)C)[C@H]2O)[C@](C)(O)C[C@@H](C)/C(=N\\OCOCCOC)[C@H](C)[C@@H](O)[C@]1(C)O", "note": "[Roxithromycin]", "values": [{"measurement": "MIC", "setting": "Staphylococcus aureus", "result": 0.25, "unit": "µg/mL"}, {"measurement": "MIC", "setting": "Bacillus subtilis", "result": 0.25, "unit": "µg/mL"}, {"measurement": "MIC", "setting": "Streptococcus pyogenes [8]", "result": 0.25, "unit": "µg/mL"}, {"measurement": "MIC", "setting": "Streptococcus pneumonia [9]", "result": 0.25, "unit": "µg/mL"}, {"measurement": "MIC", "setting": "Clostridium perfringens [10]", "result": 2, "unit": "µg/mL"}, {"measurement": "MIC", "setting": "Enterococcus faecalis [11]", "result": 8, "unit": "µg/mL"}, {"measurement": "MIC", "setting": "Escheria Coli", "result": 32, "unit": "µg/mL"}, {"measurement": "MIC", "setting": "Pasteurella multocida [12]", "result": 1, "unit": "µg/mL"}, {"measurement": "MIC", "setting": "Klebsiella Pneumonia", "result": 32, "unit": "µg/mL"}, {"measurement": "MIC", "setting": "[1]", "result": 1, "unit": "µg/mL"}, {"measurement": "MIC", "setting": "Bacteroides fragilis [13]", "result": "< 2", "unit": "µg/mL"}]}
